This passage reports bladder capacity, bladder pressure and EC50 results from patent US8501786B2, “Hydroxymethyl pyrrolidines as beta 3 adrenergic receptor agonists” (Merck Sharp & Dohme Corp., priority 2009, dated 2013).

One assay addresses T1, β3AR (Rattus norvegicus, UniProt P26255).
T1 construct: Following intravenous administration to rats; host or cells: living rats (bladder, in vivo)
The note with it: rats, intravenous administration, cited from earlier work.

For assay [1], the target named is T2, human β3 adrenergic receptor (Homo sapiens, UniProt P13945).
T2 construct: stably transfected with the cloned β-adrenergic receptor (β1, β2 or β3); expressed in transfected cells; host or cells: Chinese hamster ovary (CHO) cells, stably transfected
Description: Functional assay: cAMP production (LANCE TR-FRET) in CHO cells stably transfected with cloned β3 adrenergic receptor. Format: cell-based. A general note: cAMP levels reflect the balance of adenylyl cyclase and phosphodiesterase activity.

The mark [2] stands for this setting: Table 2, cAMP production, CHO cells expressing human β3 AR, read-out: Human β3 functional.
The mark [3] stands for this setting: Table 3, cAMP production, CHO cells expressing human β3 AR, read-out: Human β3 functional.
[4] abbreviates: cAMP production, CHO cells expressing human β3 AR, read-out: human Beta-3 agonist functional activity.
The mark [5] stands for this setting: Table 4, cAMP production, CHO cells expressing human β3 AR, read-out: Human β3 functional.
Setting [6] is: Table 6, human β3 functional activity given as ranges, read-out: Human β3 functional.

Counter-ions that a name gives are not always drawn. Like-named read-outs stand apart in the source and are kept apart here. A value given as a limit tells only on which side of the number the result lay.

T2 sequence (P13945 whole entry): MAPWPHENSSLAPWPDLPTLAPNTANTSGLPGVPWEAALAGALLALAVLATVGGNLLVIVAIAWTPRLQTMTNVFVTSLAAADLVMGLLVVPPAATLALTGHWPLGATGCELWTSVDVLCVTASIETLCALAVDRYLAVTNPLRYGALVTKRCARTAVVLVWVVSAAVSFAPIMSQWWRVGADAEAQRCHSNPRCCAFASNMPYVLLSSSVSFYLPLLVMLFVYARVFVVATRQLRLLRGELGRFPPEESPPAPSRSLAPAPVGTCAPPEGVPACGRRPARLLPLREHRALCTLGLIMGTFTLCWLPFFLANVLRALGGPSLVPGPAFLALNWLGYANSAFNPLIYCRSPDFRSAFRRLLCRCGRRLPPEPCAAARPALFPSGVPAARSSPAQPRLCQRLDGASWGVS
T1 sequence (P26255 whole entry): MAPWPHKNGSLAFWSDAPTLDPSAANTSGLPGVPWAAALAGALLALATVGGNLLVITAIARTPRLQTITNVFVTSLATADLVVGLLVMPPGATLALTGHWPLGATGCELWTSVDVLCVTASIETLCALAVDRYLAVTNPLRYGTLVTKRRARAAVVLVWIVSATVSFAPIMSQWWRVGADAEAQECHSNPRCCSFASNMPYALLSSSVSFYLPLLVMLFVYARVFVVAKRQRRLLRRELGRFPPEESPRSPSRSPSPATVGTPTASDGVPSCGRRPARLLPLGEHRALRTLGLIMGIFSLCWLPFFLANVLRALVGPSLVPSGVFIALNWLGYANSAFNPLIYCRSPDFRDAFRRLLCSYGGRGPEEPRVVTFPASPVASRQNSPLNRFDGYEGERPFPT

Regarding `C[C@H](Cc1ccc2c(c1)OC(C(=O)[O-])(C(=O)[O-])O2)NC[C@H](O)c1cccc(Cl)c1.[Na+].[Na+]` [CL316243], the bladder capacity result on β3AR (cystometric studies) is “increases bladder capacity”. In addition, on β3AR, the bladder pressure entry was “reduces bladder pressure”.
For the molecule `O=C(Cc1cccc(F)c1F)Nc1ccc(CC2CC[C@H]([C@H](O)c3cccnc3)N2)cc1` (some centres unmarked) [Example 79], the EC50 in assay [1] (setting [2]) fell in the range of 11 to 100 nM.
Take `Cc1nc(CC(=O)Nc2ccc(CC3CC[C@H]([C@H](O)c4cccnc4)N3)cc2)no1` (some centres unmarked) [Example 80]: in assay [1] (setting [2]), the EC50 was in the range of 11 to 100 nM.
With `O=C(Cc1csc(-c2ccccn2)n1)Nc1ccc(CC2CC[C@H]([C@H](O)c3cccnc3)N2)cc1` (some centres unmarked) [Example 81], in assay [1] (setting [2]), the EC50 is 11 to 100 nM.
Turning to `O=C(Cc1csc(-c2cccnc2)n1)Nc1ccc(CC2CC[C@H]([C@H](O)c3cccnc3)N2)cc1` (some centres unmarked) [Example 82], the EC50 in assay [1] (setting [2]) is 1 to 10 nM.
On to `COC(=O)CCC(=O)Nc1ccc(CC2CC[C@H]([C@H](O)c3cccnc3)N2)cc1` (some centres unmarked) [Example 83], for which the EC50 in assay [1] (setting [2]) fell in the range of 101 to 1000 nM.
Take `O=C(O)CCC(=O)Nc1ccc(CC2CC[C@H]([C@H](O)c3cccnc3)N2)cc1` (some centres unmarked) [Example 84]: the EC50 in assay [1] (setting [2]) was in the range of 101 to 1000 nM.
Take `O=C(CN1CCCOC1=O)Nc1ccc(CC2CC[C@H]([C@H](O)c3cccnc3)N2)cc1` (some centres unmarked) [Example 85]: the EC50 in assay [1] (setting [2]) lay in the range of 11 to 100 nM.
On to `CN1CCN(CC(=O)Nc2ccc(CC3CC[C@H]([C@H](O)c4cccnc4)N3)cc2)C1=O` (some centres unmarked) [Example 86], for which the EC50 in assay [1] (setting [2]) was 101 to 1000 nM.
On the same count and under the same terms, for `CN1CCCN(CC(=O)Nc2ccc(CC3CC[C@H]([C@H](O)c4cccnc4)N3)cc2)C1=O` (some centres unmarked) [Example 87] the value was 101 to 1000 nM; for `Cc1nn(C)c(O)c1CC(=O)Nc1ccc(CC2CC[C@H]([C@H](O)c3cccnc3)N2)cc1` (some centres unmarked) [Example 88], 101 to 1000 nM.
Take `NC(=O)c1ccn(CC(=O)Nc2ccc(CC3CC[C@H]([C@H](O)c4cccnc4)N3)cc2)n1` (some centres unmarked) [Example 89]: the EC50 in assay [1] (setting [2]) is 11 to 100 nM.
For `NC(=O)c1cnn(CC(=O)Nc2ccc(CC3CC[C@H]([C@H](O)c4cccnc4)N3)cc2)c1` (some centres unmarked) [Example 90], the EC50 in assay [1] (setting [2]) is 11 to 100 nM.
Regarding `O=C(Nc1ccc(CC2CC[C@H]([C@H](O)c3cccnc3)N2)cc1)[C@@H]1CCc2nnnn21` (some centres unmarked) [Example 172], the EC50 in assay [1] (setting [3]) is 1 to 10 nM.
The same measure, in the same setting: under `O=C(Nc1ccc(CC2CC[C@H]([C@H](O)c3cccnc3)N2)cc1)[C@H]1CCc2nnnn21` (some centres unmarked) [Example 173] stands 1 to 10 nM.
Turning to `O=S(=O)(Nc1ccc(C[C@@H]2CC[C@H]([C@H](O)c3cccnc3)N2)cc1)c1ccc(-c2nc(-c3ccc(C(F)(F)F)cc3)cs2)cc1` [Example 222, N-[4-({(2S,5R)-5-[(R)-hydroxy(pyridin-3-yl)methyl]pyrrolidin-2-yl}methyl)phenyl]-4-{4-[4-(trifluoromethyl)phenyl]-1,3-thiazol-2-yl}benzenesulfonamide, trifluoroacetic acid salt], the EC50 in assay [1] (setting [4]) is less than 10 nM.
Consider `O=S(=O)(Nc1ccc(CC2CC[C@H]([C@H](O)c3cccnc3)N2)cc1)c1ccc(-c2nc(-c3ccc(C(F)(F)F)cc3)cs2)cc1` (some centres unmarked) [Example 223], for which, in assay [1] (setting [5]), the EC50 fell in the range of 1 to 10 nM.
Consider `O=S(=O)(Nc1ccc(CC2CC[C@H]([C@H](O)c3cccnc3)N2)cc1)c1ccc(I)cc1` (some centres unmarked) [Example 224], for which the EC50 in assay [1] (setting [5]) lay in the range of 11 to 100 nM.
In the case of `O=S(=O)(Nc1ccc(CC2CC[C@H]([C@H](O)c3cccnc3)N2)cc1)c1ccc2ccccc2c1` (some centres unmarked) [Example 225], the EC50 in assay [1] (setting [5]) was in the range of 11 to 100 nM.
As for `O=S(=O)(Cc1ccccn1)Nc1ccc(CC2CC[C@H]([C@H](O)c3cccnc3)N2)cc1` (some centres unmarked) [Example 226], the EC50 in assay [1] (setting [5]) was in the range of 101 to 1000 nM.
Take `O=S(=O)(Nc1ccc(CC2CC[C@H]([C@H](O)c3cccnc3)N2)cc1)c1ccc(-n2cccn2)cc1` (some centres unmarked) [Example 227]: the EC50 in assay [1] (setting [5]) is 11 to 100 nM.
Take `O=S(=O)(Nc1ccc(CC2CC[C@H]([C@H](O)c3cccnc3)N2)cc1)c1ccc2cnccc2c1` (some centres unmarked) [Example 228]: the EC50 in assay [1] (setting [5]) fell in the range of 101 to 1000 nM.
The same measure, in the same setting: under `O=S(=O)(Nc1ccc(CC2CC[C@H]([C@H](O)c3cccnc3)N2)cc1)c1cccc2cccnc12` (some centres unmarked) [Example 229] stands 101 to 1000 nM.
Take `O=S(=O)(Nc1ccc(CC2CC[C@H]([C@H](O)c3cccnc3)N2)cc1)c1cccc2cnccc12` (some centres unmarked) [Example 230]: in assay [1] (setting [5]), the EC50 lay within 101 to 1000 nM.
As to `O=S(=O)(Nc1ccc(CC2CC[C@H]([C@H](O)c3cccnc3)N2)cc1)c1ccc2ncsc2c1` (some centres unmarked) [Example 231], the EC50 in assay [1] (setting [5]) lay in the range of 101 to 1000 nM.
Same read-out and setting: for `O=S(=O)(Nc1ccc(CC2CC[C@H]([C@H](O)c3cccnc3)N2)cc1)c1ccc(-c2cnco2)cc1` (some centres unmarked) [Example 232] the value was 11 to 100 nM.
For `O=C(N1CCc2ccc(S(=O)(=O)Nc3ccc(CC4CC[C@H]([C@H](O)c5cccnc5)N4)cc3)cc2C1)C(F)(F)F` (some centres unmarked) [Example 233], the EC50 in assay [1] (setting [5]) fell in the range of 101 to 1000 nM.
Same read-out and setting: under `O=c1ccc2cc(S(=O)(=O)Nc3ccc(CC4CC[C@H]([C@H](O)c5cccnc5)N4)cc3)ccc2o1` (some centres unmarked) [Example 234] stands 101 to 1000 nM; under `N#Cc1ccccc1S(=O)(=O)Nc1ccc(CC2CC[C@H]([C@H](O)c3cccnc3)N2)cc1` (some centres unmarked) [Example 235], 101 to 1000 nM.
With `N#Cc1cccc(S(=O)(=O)Nc2ccc(CC3CC[C@H]([C@H](O)c4cccnc4)N3)cc2)c1` (some centres unmarked) [Example 236], in assay [1] (setting [5]), the EC50 lay in the range of 101 to 1000 nM.
In the case of `N#Cc1ccc(S(=O)(=O)Nc2ccc(CC3CC[C@H]([C@H](O)c4cccnc4)N3)cc2)cc1` (some centres unmarked) [Example 237], the EC50 in assay [1] (setting [5]) fell in the range of 101 to 1000 nM.
Consider `O=S(=O)(Nc1ccc(CC2CC[C@H]([C@H](O)c3cccnc3)N2)cc1)c1ccccc1I` (some centres unmarked) [Example 238], for which the EC50 in assay [1] (setting [5]) is 101 to 1000 nM.
For `CCCCCCNC(=O)Nc1ccc(S(=O)(=O)Nc2ccc(C[C@@H]3CC[C@H]([C@H](O)c4cccnc4)N3)cc2)cc1` [Example 239, 4-{[(Hexylamino)carbonyl]amino}-N-[4-({(2S,5R)-5-[(R)-hydroxy(pyridin-3-yl)methyl]pyrrolidin-2-yl}methyl)phenyl]benzenesulfonamide, trifluoroacetic acid salt], in assay [1] (setting [4]), the EC50 is less than 10 nM.
In the case of `Nc1nc(CC(=O)Nc2ccc(CC3CC[C@H]([C@H](O)c4cccnc4)N3)cc2Br)cs1` (some centres unmarked) [Example 242], in assay [1] (Table 5, human β3 functional activity given as ranges, read-out: Human β3 functional), the EC50 lay within 101 to 1000 nM.
Consider `C[C@H](NC(=O)c1ccccc1F)C(=O)Nc1ccc(C[C@@H]2CC[C@H]([C@H](O)c3cccnc3)N2)cc1` [Example 245, 2-Fluoro-N-((1S)-2-{[4-({(2S,5R)-5-[(R)-hydroxy(pyridin-3-yl)methyl]pyrrolidin-2-yl}methyl)phenyl]amino}-1-methyl-2-oxoethyl)benzamide, trifluoracetic acid salt], for which the EC50 in assay [1] (setting [4]) was less than 1 nM.
In the case of `C[C@H](NS(=O)(=O)c1ccc(F)cc1)C(=O)Nc1ccc(C[C@@H]2CC[C@H]([C@H](O)c3cccnc3)N2)cc1` [Example 246, (2S)-2-{[(4-Fluorophenyl)sulfonyl]amino}-N-[4-({(2S,5R)-5-[(R)-hydroxy(pyridin-3-yl)methyl]pyrrolidin-2-yl}methyl)phenyl]propanamide], the EC50 in assay [1] (setting [4]) was less than 100 nM.
Regarding `CC(C(=O)Nc1ccc(C[C@@H]2CC[C@H]([C@H](O)c3cccnc3)N2)cc1)N(C)C(=O)c1ccccn1` (some centres unmarked) [Example 247], the EC50 in assay [1] (setting [6]) lay in the range of 101 to 1000 nM.
The same measure, in the same setting: under `CC(C(=O)Nc1ccc(C[C@@H]2CC[C@H]([C@H](O)c3cccnc3)N2)cc1)N(C)C(=O)c1ccccc1F` (some centres unmarked) [Example 248] stands 11 to 100 nM; under `CC(=O)NC(C)C(=O)Nc1ccc(C[C@@H]2CC[C@H]([C@H](O)c3cccnc3)N2)cc1` (some centres unmarked) [Example 249], 11 to 100 nM; under `CC(NC(=O)c1c(F)cccc1F)C(=O)Nc1ccc(C[C@@H]2CC[C@H]([C@H](O)c3cccnc3)N2)cc1` (some centres unmarked) [Example 250], less than 1 nM.
`CC(NC(=O)c1cscn1)C(=O)Nc1ccc(C[C@@H]2CC[C@H]([C@H](O)c3cccnc3)N2)cc1` (some centres unmarked) [Example 251]: in assay [1] (setting [6]), the EC50 is 1 to 10 nM.
`CC(NC(=O)c1nc[nH]n1)C(=O)Nc1ccc(C[C@@H]2CC[C@H]([C@H](O)c3cccnc3)N2)cc1` (some centres unmarked) [Example 252]: the EC50 in assay [1] (setting [6]) lay in the range of 1 to 10 nM.
As for `CC(NC(=O)c1cnccn1)C(=O)Nc1ccc(C[C@@H]2CC[C@H]([C@H](O)c3cccnc3)N2)cc1` (some centres unmarked) [Example 253], the EC50 in assay [1] (setting [6]) was 11 to 100 nM.
Still for that read-out and setting: under `CC(N)C(=O)Nc1ccc(C[C@@H]2CC[C@H]([C@H](O)c3cccnc3)N2)cc1` (some centres unmarked) [Example 254] stands 11 to 100 nM.
With `CC(NC(=O)c1cccc(F)c1F)C(=O)Nc1ccc(C[C@@H]2CC[C@H]([C@H](O)c3cccnc3)N2)cc1` (some centres unmarked) [Example 255], the EC50 in assay [1] (setting [6]) is less than 1 nM.
With `CC(NS(=O)(=O)c1ccccc1F)C(=O)Nc1ccc(C[C@@H]2CC[C@H]([C@H](O)c3cccnc3)N2)cc1` (some centres unmarked) [Example 256], the EC50 in assay [1] (setting [6]) lay in the range of 11 to 100 nM.
For the molecule `CC(NS(=O)(=O)c1ccccc1)C(=O)Nc1ccc(C[C@@H]2CC[C@H]([C@H](O)c3cccnc3)N2)cc1` (some centres unmarked) [Example 257], the EC50 in assay [1] (setting [6]) lay within 11 to 100 nM.
For the molecule `CC(NS(=O)(=O)Cc1ccccc1)C(=O)Nc1ccc(C[C@@H]2CC[C@H]([C@H](O)c3cccnc3)N2)cc1` (some centres unmarked) [Example 258], the EC50 in assay [1] (setting [6]) is 11 to 100 nM.
On the same count and under the same terms, for `CC(NC(=O)c1ccc(F)cc1)C(=O)Nc1ccc(C[C@@H]2CC[C@H]([C@H](O)c3cccnc3)N2)cc1` (some centres unmarked) [Example 259] the value was 1 to 10 nM; for `CC(NC(=O)c1ccccc1)C(=O)Nc1ccc(C[C@@H]2CC[C@H]([C@H](O)c3cccnc3)N2)cc1` (some centres unmarked) [Example 260], less than 1 nM; for `CC(C(=O)Nc1ccc(C[C@@H]2CC[C@H]([C@H](O)c3cccnc3)N2)cc1)N(C)C(=O)c1ccccc1F` (some centres unmarked) [Example 261], 11 to 100 nM.
Regarding `O=C(Nc1ccc(C[C@@H]2CC[C@H]([C@H](O)c3cncc(F)c3)N2)cc1)[C@@H]1CCc2scnc21` [Example 262, (4R)—N-[4-({(2S,5R)-5-[(R)-(5-fluoropyridin-3-yl)(hydroxy)methyl]pyrrolidin-2-yl}methyl)phenyl]-5,6-dihydro-4H-cyclopenta[d][1,3]thiazole-4-carboxamide, trifluoroacetic acid salt], the EC50 in assay [1] (setting [4]) was less than 10 nM.
